Seven molecules from publication PMC7112772 (Journal of Virological Methods, 2005) can be followed below.

Read-outs that look alike come from different tables or passages of the source. A value given as a limit tells only on which side of the number the result lay.

For one data set, the system named is TGEV. The experiment in a line: microbe, parasite or virus in culture. It is filed as cell-based, strain purdue112 (porcine coronavirus). Particulars: read-out: TGEV EC50.
Data set [1] deals with SARS-CoV. As to the kind of experiment: microbe, parasite or virus in culture. Particulars: Severe acute respiratory syndrome coronavirus, 120 h, read-out: SARS-CoV EC50.
Data set [2] relates to SARS-CoV. Particulars: for EC50: read-out: SARS-CoV EC50.
Data set [3] can be described thus: in vitro. The note with it: African monkey.
The nature of data set [4]: in vitro. Particulars: pig.

Take `O=C(O)C1=CC(=C(c2ccc(O)c(C(=O)O)c2)c2ccc(O)c(C(=O)O)c2)C=CC1=O` [ATA, aurintricarboxylic acid]: the EC50 with TGEV (Alphacoronavirus 1, 120 h) is more than 56.9 µM; in the data set on SARS-CoV [1], more than 9.19 µM. Also, in the data set on SARS-CoV [2], the “SI SARS CC50/EC50” value is less than 1.00. Besides, the CC50 in the data set “in vitro [3]” amounted to 9.19 µM; in the data set “in vitro [4]” it was 56.9 µM.
Consider `CC1(C)[C@@H](O[C@H]2O[C@H](C(=O)O)[C@@H](O)[C@H](O)[C@H]2O[C@@H]2O[C@H](C(=O)O)[C@@H](O)[C@H](O)[C@H]2O)CC[C@]2(C)[C@H]3C(=O)C=C4[C@@H]5C[C@@](C)(C(=O)O)CC[C@]5(C)CC[C@@]4(C)[C@]3(C)CC[C@@H]12` [Glycirrhizin], for which the EC50 was more than 100 µM in the data set on TGEV (Alphacoronavirus 1, 120 h) and more than 100 µM in the data set with SARS-CoV [1]. Further, the CC50 in the data set “in vitro [3]” and in “in vitro [4]” was more than 100 µM each time.
As to S-Nitroso-N-acetylpenicillamine, the EC50 in the data set with TGEV is more than 312 µM; with SARS-CoV [2], more than 530 µM. Besides, the CC50 with VeroE6-EGFP cells amounted to 530 µM; with LLC-PK1-EGFP cells, 312 µM. Also, the “SI SARS CC50/EC50” value in the data set with SARS-CoV [2] was less than 1.00.
As to `NC(=O)c1ncn([C@@H]2O[C@H](CO)[C@@H](O)[C@H]2O)n1` [Ribavirin], the 50% effective concentration (EC50) with TGEV (Alphacoronavirus 1, 120 h) is more than 20.2 µM; with SARS-CoV [1], more than 100 µM. Besides, the CC50 is more than 100 µM in the data set “in vitro [3]” and 20.2 µM in “in vitro [4]”.
For `Cc1cn([C@H]2C[C@H](N=[N+]=[N-])[C@@H](CO)O2)c(=O)[nH]c1=O` [AZT], the EC50 in the data set with TGEV and in the data set on SARS-CoV [2] was more than 100 µM throughout. The CC50 with VeroE6-EGFP cells and in the data set on LLC-PK1-EGFP cells was more than 100 µM each time.
For Lopinavir/ritonavir, the CC50 in the data set on VeroE6-EGFP cells and with LLC-PK1-EGFP cells was more than 100 µM throughout.
For the molecule dextran sulfate 5000 [DS5000], the EC50 in the data set with TGEV and with SARS-CoV [2] was more than 100 µM throughout. Besides, the CC50 in the data set with VeroE6-EGFP cells and in the data set with LLC-PK1-EGFP cells was more than 100 µM each time.

In general, EC50 refers to the midpoint of the concentration-response curve.
